The record followed here is US20180273531A1, “PYRIMIDINE COMPOUND AND MEDICAL USE THEREOF” (Japan Tobacco Inc., priority 2004, published 2018).

pIC50: −log10 of the molar value.

Common to all, as to assay type: cell-based
The subject of test [1] is Renal cancer cell line ACHN cell. Nature of the test: Growth inhibitory effect against cancer cell lines (3H-thymidine uptake), ACHN. To be noted: Homo sapiens, ACHN. In a few lines:
(§1)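 Cells seeded at 1.0×10^4/well, grown 24 hrs, then exposed to compound in DMSO for 18 hrs before 6 hrs pulse with ^3H-thymidine (0.25 μCi/well). Harvested cell-incorporated radioactivity counted; IC50 is the concentration halving uptake versus DMSO control, triplicate.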

For test [2], the system named is colorectal cancer cell line HT-29 cells. In words: Growth inhibitory effect against cancer cell lines (3H-thymidine uptake), HT-29. To be noted: Homo sapiens, HT-29, inhibition of 3H-thymidine uptake; test substance 18 hrs, then 3H-thymidine 6 hrs; triplicate. In short, it runs like this: as §1
In the next test the test system is p15 protein. Nature of the test: Evaluation of p15 induction activity (Western blotting). To be noted: test substance 0.1 μM, 24 hrs, ACHN cells or HT-29 cells, compared to DMSO, n=2. In a few lines: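 p15 protein quantified by densitometry of anti-p15 Western blots (10 μg protein per lane, mean of n=2). Samples came from HT-29 or ACHN cells given 0.1 μM compound for 24 h after 24 h plating, with DMSO as control.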
For orientation: Immunoblotting shows a protein as a band on a membrane.

A further test relates to p27 protein. Nature of the test: p27 protein induction test (Western blotting). To be noted: test substance (0.1 1M), 24 hrs, ACHN cells or HT-29 cells, compared to DMSO, n=2. In a few lines: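 ACHN or HT-29 cells grown 24 h, then treated with test substance at […] (DMSO) for 24 h. Lysates normalised by protein content and probed by Western blot with anti-p27 antibody. Band density quantified by densitometer against DMSO control, n=2 averaged.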

In the case of `CC(=O)Nc1cccc(-n2c(=O)n(C3CC3)c(=O)c3c(Nc4ccc(I)cc4F)cc(=O)n(C)c32)c1` [Example 1-297], the results for the pIC50 in test [1] and in test [2] were 7.00 to 8.00 and > 8.00, respectively. The fold induction at 0.1 µM in the test on p15 protein and in the test on p27 protein was ≥ 1.5 in each case.

For the compound `Cc1c(=O)n(C)c(Nc2ccc(I)cc2F)c2c(=O)n(C3CC3)c(=O)n(-c3cccc(NC(N)=O)c3)c12` [Example 4-81], the results for the pIC50 in test [1] and in test [2] were 7.00 to 8.00 and > 8.00, respectively. Further, the fold induction at 0.1 µM in the test on p15 protein and in the test with p27 protein was ≥ 1.5 each time.

Regarding `CC(=O)Nc1cccc(-n2c(=O)n(C3CC3)c(=O)c3c(Nc4ccc(N(C)C)cc4F)n(C)c(=O)c(C)c32)c1` [Example 4-61], the pIC50 in test [1] and in test [2] was 7.00 to 8.00 each time. In addition, the fold induction at 0.1 µM with p15 protein and with p27 protein was ≥ 1.5 each time.

On to `CCS(=O)(=O)c1cccc(-n2c(=O)n(C3CC3)c(=O)c3c(Nc4ccc(I)cc4F)n(C)c(=O)c(C)c32)c1` [Example 4-58], for which the pIC50 (as a rule, the negative decadic logarithm of the IC50, by convention in mol/L) in test [1] is 7.00 to 8.00; in test [2], > 8.00. Besides, the fold induction at 0.1 µM in the test on p15 protein and in the test with p27 protein was ≥ 1.5 in each case.

On to `Cc1c(=O)n(C)c(Nc2ccc(I)cc2F)c2c(=O)n(C3CC3)c(=O)n(-c3ccc4[nH]nnc4c3)c12` [Example 4-121], for which the pIC50 in test [1] is 7.00 to 8.00; in test [2], > 8.00. In addition, the fold induction at 0.1 µM in the test on p15 protein and in the test with p27 protein was ≥ 1.5 throughout.

For the compound `CONC(=O)Nc1cccc(-n2c(=O)n(C3CC3)c(=O)c3c(Nc4ccc(I)cc4F)n(C)c(=O)c(C)c32)c1` [Example 4-74], the pIC50 in test [1] was 7.00 to 8.00; in test [2], > 8.00. The fold induction at 0.1 µM with p15 protein and in the test with p27 protein was ≥ 1.5 each time.

As to `Cc1c(=O)n(C)c(Nc2ccc(I)cc2F)c2c(=O)n(C3CC3)c(=O)n(-c3ccc4nc[nH]c4c3)c12` [Example 4-107], the pIC50 in test [1] is 7.00 to 8.00; in test [2], > 8.00. Moreover, the fold induction at 0.1 µM with p15 protein and in the test with p27 protein was ≥ 1.5 in each case.

Take `Cn1c(=O)c2c(Nc3ccc(Br)cc3F)cc(=O)n(C)c2n(-c2ccccc2)c1=O` [Example 1-185]: the pIC50 in test [1] is 6.00 to 7.00; in test [2], 7.00 to 8.00. Further, the fold induction at 0.1 µM with p15 protein and with p27 protein was ≥ 1.5 throughout.

For the compound `Cn1c(=O)cc(Nc2ccc(Br)cc2F)c2c(=O)n(C3CC3)c(=O)n(-c3cccc(N)c3)c21` [Example 1-264], the pIC50 in test [1] is 6.00 to 7.00; in test [2] it was 7.00 to 8.00. In addition, the fold induction at 0.1 µM in the test with p15 protein and with p27 protein was ≥ 1.5 each time.

For `Cc1c(=O)n(C)c(Nc2ccc(I)cc2F)c2c(=O)n(C3CC3)c(=O)n(-c3ccc4nc(O)[nH]c4c3)c12` [Example 4-103], the figures for the pIC50 in test [1] and in test [2] were 6.00 to 7.00 and > 8.00, respectively. Moreover, the fold induction at 0.1 µM in the test on p15 protein and with p27 protein was ≥ 1.5 throughout.

On to `CSc1ccc(Nc2cc(=O)n(C)c3c2c(=O)n(C2CC2)c(=O)n3-c2ccccc2)c(F)c1` [Example 1-285], for which the pIC50 in test [1] and in test [2] was 7.00 to 8.00 throughout. For the same compound, the fold induction at 0.1 µM in the test with p15 protein and in the test with p27 protein was ≥ 1.5 each time.

In the case of `CC(C)S(=O)(=O)Nc1cccc(-n2c(=O)n(C3CC3)c(=O)c3c(Nc4ccc(I)cc4F)cc(=O)n(C)c32)c1` [Example 1-319], the pIC50 in test [1] and in test [2] was > 8.00 each time. The fold induction at 0.1 µM in the test on p15 protein and in the test with p27 protein was ≥ 1.5 in each case.

As to `Cn1c(=O)cc(Nc2ccc(Br)cc2F)c2c(=O)n(C3CC3)c(=O)n(-c3cccc(N4CCOCC4=O)c3)c21` [Example 1-219], the values for the pIC50 in test [1] and in test [2] were 6.00 to 7.00 and 7.00 to 8.00, respectively. The fold induction at 0.1 µM with p15 protein and with p27 protein was ≥ 1.5 in each case.
